# Results taken from patent US10766914B2, “DNA alkylating agents” (OBI PHARMA, INC., priority 2015, dated 2020).
# pIC50: −log10 of the molar value.
# Columns and labels:
# [1] = Example 4-A body weight change, H460 xenograft study; type: in vivo, female nude mice (nu/nu); settings: 40 mg/kg ip QD × 5/wk × 2 wks
# Protocol: (§1) Cells were mixed with Matrigel (50% with exception for 30% in the H460) and 0.2 ml per mouse were subcutaneously implanted to the flank area of the animals. When tumor size reached 100-150 250 mm3, mice were randomized into experimental or vehicle groups with 10 mice/group and treatment was started (Day 1). The tested compounds were formulated in 5% DMSO in D5W. The regimens employed in the examples include IP, QD×5/wk (5 days on, 2 days off) as one cycle, for a total of 2 cycles; IP, once; IP, weekly for total 3 weeks; and IV, weekly for 3 weeks. Tumor growth and body weight were measured twice a week. Tumor volume was calculated as (length×width2)/2. Drug efficacy was assessed as Tumor Growth Inhibition (TGI) and Tumor Growth Delay (TGD). TGI was defined as (1−ΔT/ΔC)×100, where ΔT/ΔC presented the ratio of the change in mean (or median, if variation within the group was relatively large) tumor volume of the treated group and of the control group. TGD was calculated as the extra days for the treated tumor to reach 500 mm3 or 1000 mm3 as compared to the control group. Animals were culled when individual tumor size reached over 2000 mm3 or mean tumor volume exceeded 1000 mm3 in the group. Data are expressed as the mean±SEM. One-way analysis of variance with Dunnett post comparison test (GraphPad Prism 4) or two-tailed student's t-test were used for analysis. […]
# [2] = Example 4-B body weight change, A549 xenograft study; type: in vivo, female nude mice (nu/nu)
# Protocol: (§2) Cells were mixed with Matrigel (50% with exception for 30% in the H460) and 0.2 ml per mouse were subcutaneously implanted to the flank area of the animals. When tumor size reached 100-150 250 mm3, mice were randomized into experimental or vehicle groups with 10 mice/group and treatment was started (Day 1). The tested compounds were formulated in 5% DMSO in D5W. The regimens employed in the examples include IP, QD×5/wk (5 days on, 2 days off) as one cycle, for a total of 2 cycles; IP, once; IP, weekly for total 3 weeks; and IV, weekly for 3 weeks. Tumor growth and body weight were measured twice a week. Tumor volume was calculated as (length×width2)/2. Drug efficacy was assessed as Tumor Growth Inhibition (TGI) and Tumor Growth Delay (TGD). TGI was defined as (1−ΔT/ΔC)×100, where ΔT/ΔC presented the ratio of the change in mean (or median, if variation within the group was relatively large) tumor volume of the treated group and of the control group. TGD was calculated as the extra days for the treated tumor to reach 500 mm3 or 1000 mm3 as compared to the control group. Animals were culled when individual tumor size reached over 2000 mm3 or mean tumor volume exceeded 1000 mm3 in the group. Data are expressed as the mean±SEM. One-way analysis of variance with Dunnett post comparison test (GraphPad Prism 4) or two-tailed student's t-test were used for analysis. A P level <0.05 was considered statistically significant.
# Antitumor effects of compounds provided herein were determined on A 549 non-small cell lung xenograft model in comparison with a chemotherapy agent, thiotepa. The dosing was as follows. Daily IP dosing: 5 doses then 2 days off then 5 more doses starting at 110 mm^3 tumors on day 1 (10 animals per group average tumor volume). The antitumor effects and the safety of administration are graphically illustrated below.
# [3] = Example 4-E body weight change, 786-O xenograft study; type: in vivo, female nude mice (nu/nu); settings: 40 mpk, ip, qd × 5/wk × 2
# Protocol: as §2, with “The regimens employed in the examples include IP, QD×5/wk (5 days on, 2 days off) as one cycle, for a total of 2 cycles; IP, once; IP, weekly for total 3 weeks; and IV, weekly for 3 weeks.” left out
# The compound TH-2768 was tested in a renal cell carcinoma 786-O model. The compound was dosed as follows. […]
# [4] = test system: A375 melanoma human tumor xenograft; experiment: Example 4-C antitumor efficacy, ectopic A375 melanoma xenograft model; type: in vivo, female nude mice (nu/nu); settings: qd × 5 × 2, ip
# Text: (§3) Specific pathogen-free homozygous female nude mice (nu/nu, Charles River Laboratories) were used. Mice were given food and water ad libitum and housed in microisolator cages. Four to six week old animals were identified by microchips (Locus Technology, Manchester, Md., USA) at the time of the experiments. All animal studies were approved by the Institutional Animal Care and Use Committee at Threshold Pharmaceuticals, Inc.
# (§4) All cell lines were from the American Type Culture Collection (ATCC, Rockville, Md., USA).
# as §2
# his study employed an A375 melanoma human tumor xenograft model and various compounds provided herein were compared to thiotepa and the approved anti melanoma drug, nab-Paclitaxel.
# [5] = test system: H460 cells; experiment: Proliferation assay in H460 cells (2 hr exposure, AlamarBlue); type: cell-based, human; settings: Homo sapiens, NCI-H460, 2 hrs exposure, wash, 70 hrs growth, read-out: IC 50 in proliferation assay in H460 cells
# In short: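 H460 cells seeded at 4×10^3/well, grown 24 h, then exposed to compound for 2 h at 37 °C. Drug was washed off and cells were regrown 70 h in fresh medium. Viable cells were read by AlamarBlue, and IC50 was taken as the concentration giving 50% growth inhibition.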
# [6] = Example 4-C body weight change, A375 xenograft study; type: in vivo, female nude mice (nu/nu); settings: 40 mpk, qd × 5 × 2, ip
# Protocol: as §2
# his study employed an A375 melanoma human tumor xenograft model and various compounds provided herein were compared to thiotepa and the approved anti melanoma drug, nab-Paclitaxel. The antitumor effects and the safety of administration are graphically illustrated below.
# [7] = test system: A 549 non-small cell lung xenograft; experiment: Example 4-B antitumor efficacy, ectopic A549 NSCLC xenograft model; type: in vivo, female nude mice (nu/nu)
# Text: as §3, §4, §2
# The dosing was as follows. Daily IP dosing: 5 doses then 2 days off then 5 more doses starting at 110 mm^3 tumors on day 1 (10 animals per group average tumor volume).
# Doses were selected by first doing a toxicity test in CD1 mice as described above. The compounds were tested against Thio-tepa.
# [8] = test system: renal cell carcinoma 786-O xenograft; experiment: Example 4-E antitumor efficacy, renal cell carcinoma 786-O xenograft model; type: in vivo, female nude mice (nu/nu); settings: 40 mpk, ip, qd × 5/wk × 2
# Text: as §3, §4
# Cells were mixed with Matrigel (50% with exception for 30% in the H460) and 0.2 ml per mouse were subcutaneously implanted to the flank area of the animals. When tumor size reached 100-150 250 mm3, mice were randomized into experimental or vehicle groups with 10 mice/group and treatment was started (Day 1). The tested compounds were formulated in 5% DMSO in D5W. […] Tumor growth and body weight were measured twice a week. Tumor volume was calculated as (length×width2)/2. Drug efficacy was assessed as Tumor Growth Inhibition (TGI) and Tumor Growth Delay (TGD). […] TGD was calculated as the extra days for the treated tumor to reach 500 mm3 or 1000 mm3 as compared to the control group. […] Data are expressed as the mean±SEM. […]
# [9] = test system: H460 non-small cell lung cancer xenograft tumor; experiment: Example 4-A antitumor efficacy, ectopic H460 NSCLC xenograft model; type: in vivo, female nude mice (nu/nu)
# Text: as §3, §4, §2
# Compounds provided herein were tested in vivo human tumor xenograft models and compared to standard chemotherapeutic agents such as gemcitabine, nab-paclitaxel. […] The compound was dosed as follows: daily IP dosing: 5 doses then 2 days off then 5 more doses starting at 100 mm^3 tumors on day 1 (10 animals per group median tumor volume). It is contemplated that in some embodiments, the compounds provided herein are activated by human and not by mouse enzymes. The antitumor effects and the safety of administration are graphically illustrated in FIGS. 3-20 below.
# [10] = test system: H460 NSCLC xenograft; experiment: Example 4-I antitumor efficacy, ectopic H460 NSCLC xenograft model; type: in vivo, female nude mice (nu/nu); settings: 10 mg/kg, iv, Q7D × 3
# Text: as §3, §4, §2
# (§5) The compound TH-2870 was tested in a H460 model. The compound was dosed follows. 1.5, 5 or 15 mg/kg, IV, weekly for 3 weeks at 250 mm^3 tumors on day 1 (10 animals per group average tumor volume), comparing with docetaxel. The antitumor effects and the safety of administration are graphically illustrated below.
# [11] = Example 4-I body weight change, H460 xenograft study; type: in vivo, female nude mice (nu/nu); settings: 10 mg/kg, iv, Q7D × 3
# Protocol: as §2, §5
# [12] = Example 4-F body weight change, H460 xenograft study; type: in vivo, female nude mice (nu/nu); settings: ip, once
# Protocol: as §2
# (§6) The compounds TH-2953 and TH-3040 were tested in a H460 model. The compounds were dosed as follows. A dose-dependent TH-2953 was given IP once, from 6.25 to 100 mg/kg, comparing with daily IP: 5 doses then 2 days off then 5 more doses starting at 100 mm^3 tumors on day 1 (10 animals per group average tumor volume). TH-3040 was administered IP once. The antitumor effects and the safety of administration are graphically illustrated below.
# [13] = test system: H460 NSCLC xenograft; experiment: Example 4-H antitumor efficacy, ectopic H460 NSCLC xenograft model; type: in vivo, female nude mice (nu/nu); settings: ip, Q7D × 3
# Text: as §3, §4, §2
# as §5, with “TH-3040” for “TH-2870”, “as follows:” for “follows. 1.5,”, “1.5” for “15”, “IP,” for “IV,”, “100” for “250”, “nab-Paclitaxel.” for “docetaxel.”
# [14] = test system: H460 NSCLC xenograft; experiment: Example 4-G antitumor efficacy, ectopic H460 NSCLC xenograft model; type: in vivo, female nude mice (nu/nu); settings: ip, Q7D × 3
# Text: as §3, §4, §2
# (§7) The compounds TH-3040 and TH-3045 were tested in a H460 model. The compounds were dosed as follows. A dose-dependent TH-3040 or TH-3045 was given IP weekly for 3 weeks, from 5 to 45 mg/kg starting at 100 mm^3 tumors on day 1 (10 animals per group average tumor volume). The antitumor effects and the safety of administration are graphically illustrated below.
# [15] = Example 4-G body weight change, H460 xenograft study; type: in vivo, female nude mice (nu/nu); settings: ip, Q7D × 3
# Protocol: as §2, §7
# [16] = test system: H460 NSCLC xenograft; experiment: Example 4-F antitumor efficacy, ectopic H460 NSCLC xenograft model; type: in vivo, female nude mice (nu/nu); settings: ip, once
# Text: as §3, §4, §2, §6
# [17] = Example 4-H body weight change, H460 xenograft study; type: in vivo, female nude mice (nu/nu); settings: ip, Q7D × 3
# Protocol: as §1
# [18] = 40 mg/kg ip QD × 5/wk × 2 wks, H460
smiles,measurement,setting,value
CC(OP(=O)(N1CC1)N1CC1)c1ccc([N+](=O)[O-])c(Oc2ccccc2)c1 (stereo not drawn) [Compound 2768],Max. BW loss %,[1],4.0%
same,Max. BW loss %,[2]; 40 mg/kg ip QD × 5/wk × 2 wks,0.0%
same,Max. BW loss %,[2]; 80 mg/kg ip QD × 5/wk × 2 wks,4.8%
same,Max. BW loss %,[3],0.0%
same,TGD 500,[4]; 40 mpk,7 days
same,TGD 1000,[4]; 40 mpk,7 days
same,inhibition in vivo at 40 mg/kg,"[4]; Mus musculus, A-375, 40 mpk, read-out: TGI",36.7%
same,pIC50,[5],7.40
same,Max. BW loss %,[6],0%
same,TGD 500,[7]; 40 mg/kg ip QD × 5/wk × 2 wks,>72 days
same,TGI,[7]; 40 mg/kg ip QD × 5/wk × 2 wks,100.6%
same,TGD 500,[7]; 80 mg/kg ip QD × 5/wk × 2 wks,>72 days
same,TGI,[7]; 80 mg/kg ip QD × 5/wk × 2 wks,104.4%
same,TGI,[8],73.0%
same,TGD 500,[9]; [18],56 days
same,TGD 1000,[9]; [18],62 days
same,TGI,[9]; [18],104.1%
same,antitumor effect as a monotherapy,"[9]; H460 study, versus gemcitabine",superior to the effect of gemcitabine
"CC(=O)O[C@@]12CO[C@@H]1C[C@H](O)[C@@]1(C)C(=O)[C@H](O)C3=C(C)[C@@H](OC(=O)[C@H](O)[C@@H](NC(=O)OC(C)(C)C)c4ccccc4)C[C@@](O)([C@@H](OC(=O)c4ccccc4)[C@H]21)C3(C)C [Doectaxel, docetaxel, reference compound]","TGD500, Days (vs. vehicle)",[10]; H460,6 days
same,"TGD1000, Days (vs. vehicle)",[10]; H460,9 days
same,TGI,"[10]; H460, 250 mm3 tumors on day 1",51.3%
same,Max. BW loss %,[11],12.4%
C[C@H](OP(=O)(N1CC1)N1CC1)c1ccc([N+](=O)[O-])c(Oc2ccc(-c3ccccc3)cc2)c1 [Compound 3040],Max. BW loss %,[12]; 25 mpk,1.3%
same,Max. BW loss %,[12]; 100 mpk,0.0%
same,"TGD500, Days (vs. vehicle)",[13]; 1.5 mg/kg,15 days
same,"TGD1000, Days (vs. vehicle)",[13]; 1.5 mg/kg,19 days
same,TGI,[13]; 1.5 mg/kg,80.6%
same,"TGD500, Days (vs. vehicle)",[13]; 5 mg/kg,36 days
same,"TGD1000, Days (vs. vehicle)",[13]; 5 mg/kg,41 days
same,TGI,[13]; 5 mg/kg,101.9%
same,TGD 500,[14]; 5 mpk,40 days
same,TGI,[14]; 5 mpk,103.5%
same,TGD 500,[14]; 15 mpk,60 days
same,TGI,[14]; 15 mpk,104.3%
same,TGD 500,[14]; 45 mpk,66 days
same,TGI,[14]; 45 mpk,106.4%
same,Max BW loss,[15]; 5 mpk,2.5%
same,Max BW loss,[15]; 15 mpk,1.0%
same,Max BW loss,[15]; 45 mpk,0.0%
same,TGD 500,[16]; 25 mpk,17 days
same,TGD 1000,[16]; 25 mpk,17 days
same,TGI,[16]; 25 mpk,80.5%
same,TGD 500,[16]; 100 mpk,20 days
same,TGD 1000,[16]; 100 mpk,23 days
same,TGI,[16]; 100 mpk,93.7%
same,Max. BW loss %,[17]; 1.5 mg/kg,7.2%
same,Max. BW loss %,[17]; 5 mg/kg,5.2%
same,pIC50,[5],8.40
